Reference: patent publication US20230060174A1, “PHARMACEUTICAL COMPOSITION OF TRICYCLIC PDE3/PDE4 DUAL INHIBITOR COMPOUND” (CHIA TAI TIANQING PHARMACEUTICAL GROUP CO., LTD., priority 2020, published 2023)

Tests used:
[1] = target: T1, recombinant human PDE4B (Homo sapiens, UniProt Q07343); assay: In vitro inhibitory activity against PDE 4B enzyme (fluorescence polarization); assay type: biochemical; conditions: 1 μM cAMP substrate
T1 construct: amino acid 305-end; GST (N); host or cells: Sf9 insect cells (baculovirus)
T1 sequence (Q07343 305-736 limits assumed): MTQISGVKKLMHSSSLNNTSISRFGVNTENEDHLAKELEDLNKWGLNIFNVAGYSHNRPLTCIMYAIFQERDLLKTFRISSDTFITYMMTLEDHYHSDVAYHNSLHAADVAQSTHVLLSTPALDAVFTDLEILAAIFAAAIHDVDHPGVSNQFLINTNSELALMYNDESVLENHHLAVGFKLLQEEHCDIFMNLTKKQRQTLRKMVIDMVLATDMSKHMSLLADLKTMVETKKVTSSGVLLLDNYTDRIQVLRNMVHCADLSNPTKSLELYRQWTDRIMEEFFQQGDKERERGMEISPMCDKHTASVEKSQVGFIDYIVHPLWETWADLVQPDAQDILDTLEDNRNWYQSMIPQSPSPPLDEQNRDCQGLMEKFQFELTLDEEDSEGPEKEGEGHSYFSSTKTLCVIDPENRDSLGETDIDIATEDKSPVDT

[2] = Pharmacokinetic study in beagle dogs; assay type: in vivo
Experimental: Experimental Example 5: Pharmacokinetic study in beagle dogs In this study, male beagle dogs were selected as test animals, and LC-MS/MS was used for quantitatively measuring the drug concentration in plasma of beagle dogs at different time points after intravenous injection or intragastric administration of the compound of formula (I) so as to evaluate the pharmacokinetics of the compound of formula (I) in beagle dogs.
The clear solution of the compound of formula (I) was injected into two beagle dogs of 10-12 kg via the cephalic vein or saphenous vein, and the clear solution of the compound of formula (I) was administered intragastrically to two beagle dogs of 10-12 kg (overnight fasted). The animals were all subjected to approximately […] blood collection each time from peripheral veins at 0.0333, 0.0833, 0.25, 0.5, 1, 2, 4, 6, 8 and 24 h post-dose, and the blood was transferred into commercial centrifuge tubes containing 0.85-1.15 mg of K2 EDTA.2H20 anticoagulant, and plasma was separated by centrifugation at 3000 g for 10 min at 4° C. The plasma concentration was measured by LC-MS/MS, and the relevant pharmacokinetic parameters were calculated using WinNonlinTM Version 6.3 (Pharsight, Mountain View, Calif.), a pharmacokinetic software, with a non-compartmental model linear-log trapezoidal method.

[3] = target: T2, CYP1A2 (Homo sapiens, UniProt P05177); assay: Inhibition of human liver microsomal CYP1A2 (phenacetin probe); assay type: in vitro ADME; conditions: human liver microsomes
T2 construct: co-incubated with human liver microsomes; from tissue; host or cells: human liver microsomes
T2 sequence (P05177 1-516): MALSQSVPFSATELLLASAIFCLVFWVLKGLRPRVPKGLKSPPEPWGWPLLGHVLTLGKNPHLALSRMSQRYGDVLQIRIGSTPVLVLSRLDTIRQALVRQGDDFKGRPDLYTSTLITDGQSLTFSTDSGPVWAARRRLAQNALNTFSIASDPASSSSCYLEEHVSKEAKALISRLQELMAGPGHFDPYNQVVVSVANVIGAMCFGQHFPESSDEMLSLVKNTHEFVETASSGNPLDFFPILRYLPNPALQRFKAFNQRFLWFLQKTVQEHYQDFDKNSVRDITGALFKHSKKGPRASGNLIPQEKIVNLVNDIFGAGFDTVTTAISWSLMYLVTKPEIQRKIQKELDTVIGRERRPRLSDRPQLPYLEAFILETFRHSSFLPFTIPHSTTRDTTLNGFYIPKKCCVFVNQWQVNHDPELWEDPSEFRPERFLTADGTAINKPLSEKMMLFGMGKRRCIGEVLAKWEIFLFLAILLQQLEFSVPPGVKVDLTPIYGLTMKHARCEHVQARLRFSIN
Experimental: (§1) Experimental Example 6: Inhibitory effect on activity of isoenzymes (CYP1A2, CYP2C9, CYP2C19, CYP2D6 and CYP3A4) of human liver microsomal cytochrome P450 A total of 5 specific probe substrates of 5 isoenzymes of CYP, namely phenacetin (CYP1A2), diclofenac (CYP2C9), (S)-mephenytoin (CYP2C19), dextromethorphan (CYP2D6) and midazolam (CYP3A4) were each co-incubated with human liver microsomes and the compound of formula (I), and then reduced nicotinamide adenine dinucleotide phosphate (NADPH) was added to initiate the reaction. After the reaction was completed, the samples were treated, and the concentrations of 5 metabolites (acetaminophen, 4′-hydroxydiclofenac, 4′-hydroxymephenytoin, dextrorphan and l′-hydroxymidazolam) generated from the specific substrates were quantitatively detected by lC-MS/MS to calculate the correcnondino- half maximal inhibitory concentrationc (IC50)

[4] = target: T3, CYP2C9 (Homo sapiens, UniProt P11712); assay: Inhibition of human liver microsomal CYP2C9 (diclofenac probe); assay type: in vitro ADME; conditions: human liver microsomes
T3 construct: co-incubated with human liver microsomes; from tissue; host or cells: human liver microsomes
T3 sequence (P11712 whole entry): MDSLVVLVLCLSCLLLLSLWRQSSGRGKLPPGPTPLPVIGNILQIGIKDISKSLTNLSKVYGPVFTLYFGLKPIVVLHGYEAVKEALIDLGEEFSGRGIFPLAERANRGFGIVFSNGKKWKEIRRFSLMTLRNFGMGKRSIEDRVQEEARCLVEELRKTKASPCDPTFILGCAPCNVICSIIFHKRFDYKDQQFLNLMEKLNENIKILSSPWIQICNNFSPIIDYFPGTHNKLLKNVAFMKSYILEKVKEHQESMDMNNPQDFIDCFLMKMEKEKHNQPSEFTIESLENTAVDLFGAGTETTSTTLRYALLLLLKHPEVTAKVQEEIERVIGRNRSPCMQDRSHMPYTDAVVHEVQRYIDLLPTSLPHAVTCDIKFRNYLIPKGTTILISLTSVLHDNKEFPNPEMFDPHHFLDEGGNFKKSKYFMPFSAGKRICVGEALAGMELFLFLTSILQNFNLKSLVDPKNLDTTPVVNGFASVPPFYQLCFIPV
Experimental: as §1

[5] = target: T4, CYP2C19 (Homo sapiens, UniProt P33261); assay: Inhibition of human liver microsomal CYP2C19 ((S)-mephenytoin probe); assay type: in vitro ADME; conditions: human liver microsomes
T4 construct: co-incubated with human liver microsomes; from tissue; host or cells: human liver microsomes
T4 sequence (P33261 whole entry): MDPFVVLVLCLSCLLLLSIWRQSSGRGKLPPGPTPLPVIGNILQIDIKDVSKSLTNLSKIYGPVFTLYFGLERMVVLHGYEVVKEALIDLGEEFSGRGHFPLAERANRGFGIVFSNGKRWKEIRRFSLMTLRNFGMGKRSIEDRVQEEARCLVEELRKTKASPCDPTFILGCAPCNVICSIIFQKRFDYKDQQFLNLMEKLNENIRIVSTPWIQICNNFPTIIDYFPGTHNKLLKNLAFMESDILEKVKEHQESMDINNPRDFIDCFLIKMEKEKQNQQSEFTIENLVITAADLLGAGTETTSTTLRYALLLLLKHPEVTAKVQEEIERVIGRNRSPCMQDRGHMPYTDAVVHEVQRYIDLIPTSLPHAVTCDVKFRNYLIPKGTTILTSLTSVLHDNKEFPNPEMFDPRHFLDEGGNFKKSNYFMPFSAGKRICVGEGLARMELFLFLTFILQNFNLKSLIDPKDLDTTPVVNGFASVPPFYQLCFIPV
Experimental: as §1

[6] = target: T5, CYP2D6 (Homo sapiens, UniProt P10635); assay: Inhibition of human liver microsomal CYP2D6 (dextromethorphan probe); assay type: in vitro ADME; conditions: human liver microsomes
T5 construct: co-incubated with human liver microsomes; from tissue; host or cells: human liver microsomes
T5 sequence (P10635 whole entry): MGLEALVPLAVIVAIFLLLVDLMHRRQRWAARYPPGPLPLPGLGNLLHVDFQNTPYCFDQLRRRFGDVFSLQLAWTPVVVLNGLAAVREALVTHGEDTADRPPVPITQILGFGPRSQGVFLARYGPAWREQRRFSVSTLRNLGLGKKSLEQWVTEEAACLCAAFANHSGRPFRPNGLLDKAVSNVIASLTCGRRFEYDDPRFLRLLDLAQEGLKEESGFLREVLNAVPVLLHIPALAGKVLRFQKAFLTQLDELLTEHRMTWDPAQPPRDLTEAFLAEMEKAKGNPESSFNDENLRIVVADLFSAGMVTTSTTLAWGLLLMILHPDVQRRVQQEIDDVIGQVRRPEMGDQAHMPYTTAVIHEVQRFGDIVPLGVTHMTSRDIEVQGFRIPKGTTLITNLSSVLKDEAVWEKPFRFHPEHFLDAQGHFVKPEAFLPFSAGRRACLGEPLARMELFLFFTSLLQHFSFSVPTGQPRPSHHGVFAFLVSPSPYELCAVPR
Experimental: as §1

[7] = target: T6, CYP3A4 (Homo sapiens, UniProt P08684); assay: Inhibition of human liver microsomal CYP3A4 (midazolam probe); assay type: in vitro ADME; conditions: human liver microsomes
T6 construct: co-incubated with human liver microsomes; from tissue; host or cells: human liver microsomes
T6 sequence (P08684 whole entry): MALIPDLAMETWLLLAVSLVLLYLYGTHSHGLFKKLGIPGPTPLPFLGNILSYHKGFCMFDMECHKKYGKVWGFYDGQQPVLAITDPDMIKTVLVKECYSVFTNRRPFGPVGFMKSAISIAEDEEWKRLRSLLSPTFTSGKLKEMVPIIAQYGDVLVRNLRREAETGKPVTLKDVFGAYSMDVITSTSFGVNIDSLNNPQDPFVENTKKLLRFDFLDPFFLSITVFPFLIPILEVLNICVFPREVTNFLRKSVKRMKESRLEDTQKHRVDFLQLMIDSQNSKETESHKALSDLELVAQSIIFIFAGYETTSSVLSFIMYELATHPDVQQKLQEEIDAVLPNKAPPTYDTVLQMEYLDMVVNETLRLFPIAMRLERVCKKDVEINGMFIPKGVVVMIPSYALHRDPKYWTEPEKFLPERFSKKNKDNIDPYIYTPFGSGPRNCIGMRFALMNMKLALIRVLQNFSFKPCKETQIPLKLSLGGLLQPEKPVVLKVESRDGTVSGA
Experimental: as §1

[8] = system: cigarette smoke-induced rat acute lung injury model; assay: Pharmacodynamic study in cigarette smoke-induced rat acute lung injury model; assay type: in vivo, Sprague-Dawley rats; conditions: rats, atomized 0.05 or 0.15 mg/mL for 30 min daily
Experimental: Experimental Example 7: Pharmacodynamic study in cigarette smoke-induced rat acute lung injury model
Male Sprague-Dawley rats (supplied by Shanghai SLAC Laboratory Animal Co., Ltd.), SPF grade, approximately 200 g.
Procedures • 1. Animals were randomly divided into 6 groups according to body weight after arrival and a one-week acclimation; • 2. On days 1-3 of the experiment, the corresponding compound of each group was atomized for 30 min. Then the animals in the model group and the treatment groups were exposed to cigarette smoke for 1 h, and after a 4-h interval, the animals were exposed to cigarette smoke again for 1 h. Cigarette smoke was given twice daily for 3 consecutive days. The control group animals were exposed to room air; • 3. On day 4 of the experiment, the corresponding compound of each group was atomized for 30 min, and then the animals in the model group and the treatment groups were given the atomized 150 μg/mL LPS for 15 min by inhalation. After 3 h (from the time starting atomization), the animals were exposed to cigarette smoke for 1 h, and then the lung function (Penh and F) of the animals was examined; bronchoalveolar lavage fluid (BALF) was collected for cell counting after the animals were euthanized with CO2. • 4. […]

[9] = intragastric administration 3 mg/kg

In the case of `CCOc1cc2c(cc1OC)-c1c/c(=N\c3c(C)cc(C)cc3C)n(CCNC(=O)c3c(O)nnn3C)c(=O)n1CC2` [Compound of formula (I)], the IC50 [1] is reported as 0.00041 µM, the “Area under plasma concentration-time curve (0-inf)” value [2, 9] is reported as 0.123 µM·h and the Peak concentration [2, 9] is reported as 59.4 nM. The Time to peak [2, 9] was 0.6 h, the “Area under plasma concentration-time curve (0-inf)” value ([2]; intravenous injection 0.5 mg/kg) was 0.21 µM·h and the IC50 [3] was ≥ 50 µM. The IC50 [4] was 31 µM, the IC50 [5] was ≥ 50 µM and the IC50 [6] was ≥ 50 µM. The IC50 [7] was ≥ 50 µM, the “Number of white blood cells in the bronchoalveolar lavage fluid” value ([8]; FIG. 5) was “effectively reduce” and the “Airway resistance index Penh (Mch challenge pulmonary function test)” value ([8]; FIG. 6) was “effectively reduce”.
